Values after ≈ are worked out from the molar mass of the structure shown. Active and inactive are the calls of the source. The rule behind the calls is not given here.

Data on 22 compounds can be found in ChEMBL document CHEMBL1165868, “Synthesis and antimicrobial activity of cholic acid hydrazone analogues” (2010).

Format in all cases: functional
In assay [1] the test system is Escherichia coli. The assay is described as follows: Antimicrobial activity against Escherichia coli after 24 hrs.
Assay [2] relates to Pseudomonas aeruginosa. The assay can be described thus: Antimicrobial activity against Pseudomonas aeruginosa after 24 hrs.
Assay [3] relates to Klebsiella aerogenes. The assay can be described thus: Antimicrobial activity against Enterobacter aerogenes after 24 hrs.
For assay [4], the system named is Staphylococcus aureus. The assay can be described thus: Antimicrobial activity against Staphylococcus aureus after 24 hrs.
Assay [5] has as its system Enterococcus faecalis. The assay is described as follows: Antimicrobial activity against Enterococcus faecalis after 24 hrs.
Assay [6] relates to Priestia megaterium. The assay is described as follows: Antimicrobial activity against Bacillus megaterium after 24 hrs.

By MIC is commonly meant the lowest concentration found to suppress growth. Consider `C[C@H](CCC(=O)N/N=C/c1ccccc1)[C@H]1CC[C@H]2[C@@H]3[C@H](O)C[C@@H]4C[C@H](O)CC[C@]4(C)[C@H]3C[C@H](O)[C@]12C`, for which the minimum inhibitory concentration (MIC) in assay [1] came to 3.91 µg/mL (≈ 7.66 µM); in assay [4] it was 62.5 µg/mL (≈ 122 µM); in assay [5], 15.6 µg/mL (≈ 30.6 µM); in assay [6], 31.2 µg/mL (≈ 61.2 µM). Besides, the MIC entry in assay [2] and in assay [3] was “inactive” throughout.
On to `COc1ccc(OC)c(/C=N/NC(=O)CC[C@@H](C)[C@H]2CC[C@H]3[C@@H]4[C@H](O)C[C@@H]5C[C@H](O)CC[C@]5(C)[C@H]4C[C@H](O)[C@]23C)c1`, for which the MIC entry in assay [1], in assay [2], in assay [3] and in assay [4] was “inactive” each time. The MIC in assay [5] turned out to be 15.6 µg/mL (≈ 27.4 µM); in assay [6], 31.2 µg/mL (≈ 54.8 µM).
Regarding `C[C@H](CCC(=O)N/N=C/c1cc2ccccc2[nH]1)[C@H]1CC[C@H]2[C@@H]3[C@H](O)C[C@@H]4C[C@H](O)CC[C@]4(C)[C@H]3C[C@H](O)[C@]12C`, the MIC entry in assay [1], in assay [2] and in assay [3] was “inactive” in each case. Further, the MIC in assay [4] came out at 31.2 µg/mL (≈ 56.8 µM); in assay [5], 3.91 µg/mL (≈ 7.11 µM); in assay [6], 15.6 µg/mL (≈ 28.4 µM).
With `C[C@H](CCC(=O)N/N=C/c1ccco1)[C@H]1CC[C@H]2[C@@H]3[C@H](O)C[C@@H]4C[C@H](O)CC[C@]4(C)[C@H]3C[C@H](O)[C@]12C`, the MIC result in assay [1], in assay [2], in assay [3], in assay [4] and in assay [5] was “inactive” each time. In assay [6], it took 31.2 µg/mL (≈ 62.4 µM) to inhibit growth (MIC).
For the compound `C[C@H](CCC(=O)N/N=C/c1ccc(Br)cc1)[C@H]1CC[C@H]2[C@@H]3[C@H](O)C[C@@H]4C[C@H](O)CC[C@]4(C)[C@H]3C[C@H](O)[C@]12C`, the MIC in assay [1] amounted to 3.91 µg/mL (≈ 6.63 µM); in assay [4], 62.5 µg/mL (≈ 106 µM); in assay [5], 3.91 µg/mL (≈ 6.63 µM); in assay [6] it was 7.82 µg/mL (≈ 13.3 µM). Moreover, the MIC result in assay [2] and in assay [3] was “inactive” throughout.
As to `C[C@H](CCC(=O)N/N=C/c1ccc(F)cc1)[C@H]1CC[C@H]2[C@@H]3[C@H](O)C[C@@H]4C[C@H](O)CC[C@]4(C)[C@H]3C[C@H](O)[C@]12C`, the MIC result in assay [1], in assay [2] and in assay [3] was “inactive” throughout. The MIC in assay [4] is 31.2 µg/mL (≈ 59.1 µM); in assay [5], 62.5 µg/mL (≈ 118 µM); in assay [6], 31.2 µg/mL (≈ 59.1 µM).
With `C[C@H](CCC(=O)O)[C@H]1CC[C@H]2[C@@H]3[C@H](O)C[C@@H]4C[C@H](O)CC[C@]4(C)[C@H]3C[C@H](O)[C@]12C` [CHOLIC ACID], the results for the MIC in assay [1], in assay [2] and in assay [5] were 7.81 µg/mL (≈ 19.1 µM), 15.6 µg/mL (≈ 38.3 µM) and 31.2 µg/mL (≈ 76.5 µM), respectively. In addition, the MIC result in assay [3], in assay [4] and in assay [6] was “inactive” each time.
As for `COc1cccc(/C=N/NC(=O)CC[C@@H](C)[C@H]2CC[C@H]3[C@@H]4[C@H](O)C[C@@H]5C[C@H](O)CC[C@]5(C)[C@H]4C[C@H](O)[C@]23C)c1OC`, the values for the MIC in assay [1], in assay [5] and in assay [6] were 3.91 µg/mL (≈ 6.85 µM), 15.6 µg/mL (≈ 27.4 µM) and 31.2 µg/mL (≈ 54.8 µM), respectively. Also, the MIC result in assay [2], in assay [3] and in assay [4] was “inactive” throughout.
Consider `Cc1ccc(/C=N/NC(=O)CC[C@@H](C)[C@H]2CC[C@H]3[C@@H]4[C@H](O)C[C@@H]5C[C@H](O)CC[C@]5(C)[C@H]4C[C@H](O)[C@]23C)cc1`, for which the MIC in assay [1] came out at 7.81 µg/mL (≈ 14.9 µM); in assay [4] it was 31.2 µg/mL (≈ 59.6 µM); in assay [5], 7.82 µg/mL (≈ 14.9 µM). The MIC result in assay [2], in assay [3] and in assay [6] was “inactive” in each case.
For the compound `C[C@H](CCC(=O)N/N=C/c1cccs1)[C@H]1CC[C@H]2[C@@H]3[C@H](O)C[C@@H]4C[C@H](O)CC[C@]4(C)[C@H]3C[C@H](O)[C@]12C`, the MIC entry in assay [1], in assay [2] and in assay [3] was “inactive” each time. Further, the figures for the MIC in assay [4], in assay [5] and in assay [6] were 62.5 µg/mL (≈ 121 µM), 31.2 µg/mL (≈ 60.5 µM) and 15.6 µg/mL (≈ 30.2 µM), respectively.
`C[C@H](CCC(=O)N/N=C/c1ccc(Cl)cc1)[C@H]1CC[C@H]2[C@@H]3[C@H](O)C[C@@H]4C[C@H](O)CC[C@]4(C)[C@H]3C[C@H](O)[C@]12C`: the MIC is 3.91 µg/mL (≈ 7.17 µM) in assay [1], 62.5 µg/mL (≈ 115 µM) in assay [4], 1.96 µg/mL (≈ 3.6 µM) in assay [5] and 31.2 µg/mL (≈ 57.3 µM) in assay [6]. Moreover, the MIC entry in assay [2] and in assay [3] was “inactive” each time.
For the compound `C[C@H](CCC(=O)N/N=C/c1cccc(Cl)c1)[C@H]1CC[C@H]2[C@@H]3[C@H](O)C[C@@H]4C[C@H](O)CC[C@]4(C)[C@H]3C[C@H](O)[C@]12C`, the MIC in assay [1] worked out at 3.91 µg/mL (≈ 7.17 µM); in assay [4] it was 31.2 µg/mL (≈ 57.3 µM); in assay [5], 1.96 µg/mL (≈ 3.6 µM); in assay [6], 31.2 µg/mL (≈ 57.3 µM). Besides, the MIC result in assay [2] and in assay [3] was “inactive” each time.
Consider `C[C@H](CCC(=O)N/N=C/c1ccccn1)[C@H]1CC[C@H]2[C@@H]3[C@H](O)C[C@@H]4C[C@H](O)CC[C@]4(C)[C@H]3C[C@H](O)[C@]12C`, for which the MIC in assay [1] turned out to be 7.81 µg/mL (≈ 15.3 µM); in assay [6] it was 31.2 µg/mL (≈ 61.1 µM). The MIC entry in assay [2], in assay [3], in assay [4] and in assay [5] was “inactive” each time.
Consider `C[C@H](CCC(=O)NN)[C@H]1CC[C@H]2[C@@H]3[C@H](O)C[C@@H]4C[C@H](O)CC[C@]4(C)[C@H]3C[C@H](O)[C@]12C` [CHOLYLHYDRAZIDE], for which the MIC entry in assay [1], in assay [2], in assay [3] and in assay [4] was “inactive” each time. Also, the MIC in assay [5] and in assay [6] was 31.2 µg/mL (≈ 73.9 µM) throughout.
With `C[C@H](CCC(=O)N/N=C/c1ccc(C#N)cc1)[C@H]1CC[C@H]2[C@@H]3[C@H](O)C[C@@H]4C[C@H](O)CC[C@]4(C)[C@H]3C[C@H](O)[C@]12C`, the minimal inhibitory concentration (MIC) is 7.81 µg/mL (≈ 14.6 µM) in assay [1], 31.2 µg/mL (≈ 58.3 µM) in assay [4], 15.6 µg/mL (≈ 29.2 µM) in assay [5] and 31.2 µg/mL (≈ 58.3 µM) in assay [6]. The MIC entry in assay [2] and in assay [3] was “inactive” each time.
`C[C@H](CCC(=O)N/N=C/c1ccc(Cl)c([N+](=O)[O-])c1)[C@H]1CC[C@H]2[C@@H]3[C@H](O)C[C@@H]4C[C@H](O)CC[C@]4(C)[C@H]3C[C@H](O)[C@]12C`: the MIC in assay [1] was found to be 7.81 µg/mL (≈ 13.2 µM); in assay [4], 31.2 µg/mL (≈ 53 µM); in assay [5], 3.91 µg/mL (≈ 6.63 µM); in assay [6], 31.2 µg/mL (≈ 53 µM). Further, the MIC entry in assay [2] and in assay [3] was “inactive” throughout.
Turning to `C[C@H](CCC(=O)N/N=C/c1ccc([N+](=O)[O-])cc1)[C@H]1CC[C@H]2[C@@H]3[C@H](O)C[C@@H]4C[C@H](O)CC[C@]4(C)[C@H]3C[C@H](O)[C@]12C`, the minimum inhibitory concentration (MIC) in assay [1] turned out to be 7.81 µg/mL (≈ 14.1 µM); in assay [4] it was 31.2 µg/mL (≈ 56.2 µM); in assay [5], 7.82 µg/mL (≈ 14.1 µM); in assay [6], 31.2 µg/mL (≈ 56.2 µM). For the same compound, the MIC result in assay [2] and in assay [3] was “inactive” in each case.
As to `COc1ccc(/C=N/NC(=O)CC[C@@H](C)[C@H]2CC[C@H]3[C@@H]4[C@H](O)C[C@@H]5C[C@H](O)CC[C@]5(C)[C@H]4C[C@H](O)[C@]23C)cc1`, the MIC was 7.81 µg/mL (≈ 14.4 µM) in assay [1], 62.5 µg/mL (≈ 116 µM) in assay [4], 15.6 µg/mL (≈ 28.9 µM) in assay [5] and 31.2 µg/mL (≈ 57.8 µM) in assay [6]. The MIC result in assay [2] and in assay [3] was “inactive” in each case.
With `COc1ccc2[nH]cc(/C=N/NC(=O)CC[C@@H](C)[C@H]3CC[C@H]4[C@@H]5[C@H](O)C[C@@H]6C[C@H](O)CC[C@]6(C)[C@H]5C[C@H](O)[C@]34C)c2c1`, the MIC result in assay [1], in assay [2], in assay [3], in assay [4] and in assay [6] was “inactive” throughout. Further, the minimum inhibitory concentration (MIC) in assay [5] was determined as 31.2 µg/mL (≈ 53.9 µM).
Regarding `C[C@H](CCC(=O)N/N=C/c1ccc[nH]1)[C@H]1CC[C@H]2[C@@H]3[C@H](O)C[C@@H]4C[C@H](O)CC[C@]4(C)[C@H]3C[C@H](O)[C@]12C`, the MIC entry in assay [1], in assay [2], in assay [3], in assay [4] and in assay [5] was “inactive” each time. This compound also returned an MIC in assay [6] of 31.2 µg/mL (≈ 62.5 µM).
Turning to `C[C@H](CCC(=O)N/N=C/c1ccccc1Br)[C@H]1CC[C@H]2[C@@H]3[C@H](O)C[C@@H]4C[C@H](O)CC[C@]4(C)[C@H]3C[C@H](O)[C@]12C`, the results for the MIC in assay [1], in assay [5] and in assay [6] were 7.81 µg/mL (≈ 13.2 µM), 1.96 µg/mL (≈ 3.32 µM) and 31.2 µg/mL (≈ 53 µM), respectively. Moreover, the MIC result in assay [2], in assay [3] and in assay [4] was “inactive” each time.
In the case of `N[C@@H](C(=O)N[C@@H]1C(=O)N2C(C(=O)O)=C(Cl)CS[C@H]12)c1ccccc1` [CEFACLOR ANHYDROUS], the MIC entry in assay [1] and in assay [2] was “inactive” throughout. Moreover, the MIC in assay [3] worked out at 7.82 µg/mL (≈ 21.3 µM); in assay [4], 31.2 µg/mL (≈ 85 µM); in assay [5], 31.2 µg/mL (≈ 85 µM); in assay [6] it was 31.2 µg/mL (≈ 85 µM).
